# Values of other authors in article PMC4297300, “Different binding motifs of the celiac disease-associated HLA molecules DQ2.5, DQ2.2, and DQ7.5 revealed by relative quantitative proteomics of endogenous peptide repertoires” (Immunogenetics, 2014).
# Target: DQ2.2
# Conditions: ref Bodd et al. [2012]; cited from earlier work
# Source text: The risk for celiac disease associated with DQ2.5 and DQ2.2 is remarkably different (Margaritte-Jeannin et al. [2004]; Sollid and Lie [2005]). Studying gluten-reactive T cells from DQ2.5 celiac patients with antigen-presenting cells expressing DQ2.5 or DQ2.2, reactivity to all gluten epitopes defined by DQ2.5 restricted T cells were observed albeit with small quantitative differences (Qiao et al. [2005]; Vader et al. [2003]). It was only when antigen presenting cells were pulsed with antigen and incubated for extended time before mixing with T cells that qualitative differences were observed s ...
sequence,measurement,value
PFSEQEQPV [DQ2.2-glut-L1],Kinetic stability of binding to DQ2.2,high kinetic stability
